{"source": "patent US10550105B2", "about": "(Ribon Therapeutics Inc., priority 2018, dated 2020)", "key": {"interferon-beta (IFN-β)": {"test_system": "interferon-beta (IFN-β)", "experiment": "Induction of interferon-beta levels in RAW264.7 macrophages in the presence of STING agonist DMXAA (FIG. 3)", "assay_type": "cell-based", "settings": "RAW264.7 mouse macrophages"}, "PARP7 [1]": {"molecular_target": "T1, PARP7 (Homo sapiens (Human), UniProt Q7Z3E1)", "T1 sequence (Q7Z3E1 whole entry)": "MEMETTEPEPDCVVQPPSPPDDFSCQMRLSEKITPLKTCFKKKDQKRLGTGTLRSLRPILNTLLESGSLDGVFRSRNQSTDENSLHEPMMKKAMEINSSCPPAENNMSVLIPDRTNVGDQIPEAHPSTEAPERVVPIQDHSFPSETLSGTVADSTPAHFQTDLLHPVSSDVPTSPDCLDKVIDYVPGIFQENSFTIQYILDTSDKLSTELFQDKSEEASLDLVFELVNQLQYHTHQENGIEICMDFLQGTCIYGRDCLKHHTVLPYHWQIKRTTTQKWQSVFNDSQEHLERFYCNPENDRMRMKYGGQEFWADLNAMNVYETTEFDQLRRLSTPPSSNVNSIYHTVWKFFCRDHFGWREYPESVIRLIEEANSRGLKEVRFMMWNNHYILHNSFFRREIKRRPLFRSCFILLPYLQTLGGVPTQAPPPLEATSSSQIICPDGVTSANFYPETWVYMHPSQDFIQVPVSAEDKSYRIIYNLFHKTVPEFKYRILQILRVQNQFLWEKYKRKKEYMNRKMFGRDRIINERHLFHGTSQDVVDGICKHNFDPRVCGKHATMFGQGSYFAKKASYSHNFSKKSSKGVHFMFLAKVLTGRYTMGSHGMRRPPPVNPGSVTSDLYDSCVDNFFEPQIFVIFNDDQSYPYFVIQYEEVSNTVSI", "experiment": "Inhibition of PARP7 (Table A-1)", "assay_type": "biochemical", "settings": "comparison of separated isomers, see Table A-1"}, "PARP7 [2]": {"molecular_target": "T1, PARP7", "experiment": "Enzymatic assay for inhibition of PARP7: TR-FRET displacement of biotinylated Probe A from the TIPARP active site", "assay_type": "binding", "settings": "Table A-1", "method_in_brief": "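Compound dose-response series were incubated with TIPARP and biotinylated Probe A, with a final 30 min step at 25 °C. TR-FRET was read at 320 nm excitation, 615/665 nm emission and 90 μs delay, using the 665/615 ratio to measure complex formation. % inhibition was fitted with a floating or fixed (1) Hill coefficient.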"}, "COLO-680N": {"test_system": "COLO-680N", "experiment": "Growth inhibition of cancer cell lines, 72 hrs (CellTiter-Glo)", "assay_type": "cell-based", "settings": "Homo sapiens, oesophagus, squamous cell carcinoma", "method": "(§1) Example C: Inhibition of Cancer Cell Growth by Treatment with PARP7 Inhibitors\n(§2) Table A-2 and Table A-3 (below) represents the concentration that causes 50% growth inhibition (GI50) in a panel of cancer cell lines with Compound 18B and Compound 561. Cells were plated into 384-well plates at a pre-specified density in fetal bovine serum-containing media. Cells were treated with compound or vehicle (DMSO) 24 hrs later, and a day zero plate was collected for analysis. Test compound plates were incubated continuously for 72 hrs (Table A-2) or 144 hours (Table A-3) cell growth was assessed using a luminescent cell viability assay (CellTiter-Glo, Promega). The GI50was determined by correcting for the cell count at time zero (time of treatment) and plotting data as percent growth relative to vehicle-treated cells."}, "COR-L105": {"test_system": "COR-L105", "experiment": "Growth inhibition of cancer cell lines, 72 hrs (CellTiter-Glo)", "assay_type": "cell-based", "settings": "Homo sapiens, lung, adenocarcinoma", "method": "as §1, §2"}, "Caki-1": {"test_system": "Caki-1", "experiment": "Growth inhibition of cancer cell lines, 72 hrs (CellTiter-Glo)", "assay_type": "cell-based", "settings": "Homo sapiens, kidney, clear cell renal cell carcinoma", "method": "as §1, §2"}, "EBC-1": {"test_system": "EBC-1", "experiment": "Growth inhibition of cancer cell lines, 72 hrs (CellTiter-Glo)", "assay_type": "cell-based", "settings": "Homo sapiens, lung, squamous cell carcinoma", "method": "as §1, §2"}, "EN": {"test_system": "EN", "experiment": "Growth inhibition of cancer cell lines, 72 hrs (CellTiter-Glo)", "assay_type": "cell-based", "settings": "endometrium, not specified", "method": "as §1, §2"}, "GSS": {"test_system": "GSS", "experiment": "Growth inhibition of cancer cell lines, 72 hrs (CellTiter-Glo)", "assay_type": "cell-based", "settings": "stomach, adenocarcinoma", "method": "as §1, §2"}, "HCC1187": {"test_system": "HCC1187", "experiment": "Growth inhibition of cancer cell lines, 72 hrs (CellTiter-Glo)", "assay_type": "cell-based", "settings": "Homo sapiens, breast, ductal carcinoma", "method": "as §1, §2"}, "HCC1599": {"test_system": "HCC1599", "experiment": "Growth inhibition of cancer cell lines, 72 hrs (CellTiter-Glo)", "assay_type": "cell-based", "settings": "Homo sapiens, breast, ductal carcinoma", "method": "as §1, §2"}, "HCC827": {"test_system": "HCC827", "experiment": "Growth inhibition of cancer cell lines, 72 hrs (CellTiter-Glo)", "assay_type": "cell-based", "settings": "Homo sapiens, lung, adenocarcinoma", "method": "as §1, §2"}, "IA-LM": {"test_system": "IA-LM", "experiment": "Growth inhibition of cancer cell lines, 72 hrs (CellTiter-Glo)", "assay_type": "cell-based", "settings": "lung, large cell carcinoma", "method": "as §1, §2"}, "JHOS-2": {"test_system": "JHOS-2", "experiment": "Growth inhibition of cancer cell lines, 72 hrs (CellTiter-Glo)", "assay_type": "cell-based", "settings": "ovary, adenocarcinoma", "method": "as §1, §2"}, "KMRC-3": {"test_system": "KMRC-3", "experiment": "Growth inhibition of cancer cell lines, 72 hrs (CellTiter-Glo)", "assay_type": "cell-based", "settings": "kidney, clear cell renal cell carcinoma", "method": "as §1, §2"}, "LUDLU-l": {"test_system": "LUDLU-l", "experiment": "Growth inhibition of cancer cell lines, 72 hrs (CellTiter-Glo)", "assay_type": "cell-based", "settings": "lung, squamous cell carcinoma", "method": "as §1, §2"}, "LXF-289": {"test_system": "LXF-289", "experiment": "Growth inhibition of cancer cell lines, 72 hrs (CellTiter-Glo)", "assay_type": "cell-based", "settings": "Homo sapiens, lung, adenocarcinoma", "method": "as §1, §2"}, "MDA-MB-468": {"test_system": "MDA-MB-468", "experiment": "Growth inhibition of cancer cell lines, 72 hrs (CellTiter-Glo)", "assay_type": "cell-based", "settings": "Homo sapiens, breast, not specified", "method": "as §1, §2"}, "NCI-H1930": {"test_system": "NCI-H1930", "experiment": "Growth inhibition of cancer cell lines, 72 hrs (CellTiter-Glo)", "assay_type": "cell-based", "settings": "Homo sapiens, lung, small cell carcinoma", "method": "as §1, §2"}, "NCI-H2066": {"test_system": "NCI-H2066", "experiment": "Growth inhibition of cancer cell lines, 72 hrs (CellTiter-Glo)", "assay_type": "cell-based", "settings": "lung, small cell carcinoma", "method": "as §1, §2"}, "NCI-H2081": {"test_system": "NCI-H2081", "experiment": "Growth inhibition of cancer cell lines, 72 hrs (CellTiter-Glo)", "assay_type": "cell-based", "settings": "Homo sapiens, lung, not specified", "method": "as §1, §2"}, "NCI-H2228": {"test_system": "NCI-H2228", "experiment": "Growth inhibition of cancer cell lines, 72 hrs (CellTiter-Glo)", "assay_type": "cell-based", "settings": "Homo sapiens, lung, adenocarcinoma", "method": "as §1, §2"}, "NCI-H441": {"test_system": "NCI-H441", "experiment": "Growth inhibition of cancer cell lines, 72 hrs (CellTiter-Glo)", "assay_type": "cell-based", "settings": "Homo sapiens, lung, adenocarcinoma", "method": "as §1, §2"}, "NCI-H596": {"test_system": "NCI-H596", "experiment": "Growth inhibition of cancer cell lines, 72 hrs (CellTiter-Glo)", "assay_type": "cell-based", "settings": "Homo sapiens, lung, mixed adenosquamous carcinoma", "method": "as §1, §2"}, "NCI-H647": {"test_system": "NCI-H647", "experiment": "Growth inhibition of cancer cell lines, 72 hrs (CellTiter-Glo)", "assay_type": "cell-based", "settings": "Homo sapiens, lung, mixed adenosquamous carcinoma", "method": "as §1, §2"}, "Panc 03.27": {"test_system": "Panc 03.27", "experiment": "Growth inhibition of cancer cell lines, 72 hrs (CellTiter-Glo)", "assay_type": "cell-based", "settings": "Homo sapiens, PANC-03-27, pancreas, ductal carcinoma", "method": "as §1, §2"}, "SCC-25": {"test_system": "SCC-25", "experiment": "Growth inhibition of cancer cell lines, 72 hrs (CellTiter-Glo)", "assay_type": "cell-based", "settings": "Homo sapiens, upper aerodigestive tract, squamous cell carcinoma", "method": "as §1, §2"}, "SK-BR-3": {"test_system": "SK-BR-3", "experiment": "Growth inhibition of cancer cell lines, 72 hrs (CellTiter-Glo)", "assay_type": "cell-based", "settings": "Homo sapiens, breast, not specified", "method": "as §1, §2"}, "TE-8": {"test_system": "TE-8", "experiment": "Growth inhibition of cancer cell lines, 72 hrs (CellTiter-Glo)", "assay_type": "cell-based", "settings": "Homo sapiens, oesophagus, squamous cell carcinoma", "method": "as §1, §2"}, "TUHR10TKB": {"test_system": "TUHR10TKB", "experiment": "Growth inhibition of cancer cell lines, 72 hrs (CellTiter-Glo)", "assay_type": "cell-based", "settings": "kidney, not specified", "method": "as §1, §2"}, "TYK-nu": {"test_system": "TYK-nu", "experiment": "Growth inhibition of cancer cell lines, 72 hrs (CellTiter-Glo)", "assay_type": "cell-based", "settings": "ovary, undifferentiated carcinoma", "method": "as §1, §2"}, "YH-13": {"test_system": "YH-13", "experiment": "Growth inhibition of cancer cell lines, 72 hrs (CellTiter-Glo)", "assay_type": "cell-based", "settings": "central nervous system, astrocytoma Grade IV", "method": "as §1, §2"}, "CT26 cells": {"test_system": "CT26 cells", "experiment": "Proliferation of CT26 cells in the presence of PARP7 inhibitors (CellTiter-Glo, 4 days)", "assay_type": "cell-based, mouse", "settings": "CellTiter-Glo (FIG. 5)", "method": "Example F: Proliferation of CT26 cells in the presence of PARP7 inhibitors\nCT26 cells were plated in a 384-well plate and allowed to adhere for several hours before being treated with Compound 18B. Cells were incubated with compound for 4 days prior to processing with CellTiter-Glo reagent (Promega). Luminescence was measured with a Perkin Elmer Envision and percent inhibition was calculated using the vehicle (DMSO) average as 0% inhibition. Non-linear regression analysis was performed using a 4 parameter (variable slope) fit in GraphPad Prism."}}}
{"smiles": "N#Cc1ccc(N2CCN(C(=O)c3cccc(OC[C@@H]4c5ccccc5CN4c4cn[nH]c(=O)c4C(F)(F)F)c3)CC2)nc1", "note": "(single isomer, unassigned) [Example 18 Isomer B]", "values": [{"measurement": "interferon-beta (IFN-β) levels", "setting": "interferon-beta (IFN-β)", "result": "induction"}, {"measurement": "relative potency of the enantiomers / diastereomers", "setting": "PARP7 [1]", "result": "more potent enantiomer"}, {"measurement": "IC50", "setting": "PARP7 [2]", "result": "< 100", "unit": "nM"}, {"measurement": "GI50", "setting": "COLO-680N", "result": "< 100", "unit": "nM"}, {"measurement": "GI50", "setting": "COR-L105", "result": "100 to 1000", "unit": "nM"}, {"measurement": "GI50", "setting": "Caki-1", "result": "< 100", "unit": "nM"}, {"measurement": "GI50", "setting": "EBC-1", "result": "< 100", "unit": "nM"}, {"measurement": "GI50", "setting": "EN", "result": "100 to 1000", "unit": "nM"}, {"measurement": "GI50", "setting": "GSS", "result": "100 to 1000", "unit": "nM"}, {"measurement": "GI50", "setting": "HCC1187", "result": "100 to 1000", "unit": "nM"}, {"measurement": "GI50", "setting": "HCC1599", "result": "100 to 1000", "unit": "nM"}, {"measurement": "GI50", "setting": "HCC827", "result": "100 to 1000", "unit": "nM"}, {"measurement": "GI50", "setting": "IA-LM", "result": "< 100", "unit": "nM"}, {"measurement": "GI50", "setting": "JHOS-2", "result": "< 100", "unit": "nM"}, {"measurement": "GI50", "setting": "KMRC-3", "result": "100 to 1000", "unit": "nM"}, {"measurement": "GI50", "setting": "LUDLU-l", "result": "100 to 1000", "unit": "nM"}, {"measurement": "GI50", "setting": "LXF-289", "result": "100 to 1000", "unit": "nM"}, {"measurement": "GI50", "setting": "MDA-MB-468", "result": "< 100", "unit": "nM"}, {"measurement": "GI50", "setting": "NCI-H1930", "result": "< 100", "unit": "nM"}, {"measurement": "GI50", "setting": "NCI-H2066", "result": "100 to 1000", "unit": "nM"}, {"measurement": "GI50", "setting": "NCI-H2081", "result": "100 to 1000", "unit": "nM"}, {"measurement": "GI50", "setting": "NCI-H2228", "result": "100 to 1000", "unit": "nM"}, {"measurement": "GI50", "setting": "NCI-H441", "result": "100 to 1000", "unit": "nM"}, {"measurement": "GI50", "setting": "NCI-H596", "result": "< 100", "unit": "nM"}, {"measurement": "GI50", "setting": "NCI-H647", "result": "< 100", "unit": "nM"}, {"measurement": "GI50", "setting": "Panc 03.27", "result": "< 100", "unit": "nM"}, {"measurement": "GI50", "setting": "SCC-25", "result": "< 100", "unit": "nM"}, {"measurement": "GI50", "setting": "SK-BR-3", "result": "100 to 1000", "unit": "nM"}, {"measurement": "GI50", "setting": "TE-8", "result": "< 100", "unit": "nM"}, {"measurement": "GI50", "setting": "TUHR10TKB", "result": "< 100", "unit": "nM"}, {"measurement": "GI50", "setting": "TYK-nu", "result": "< 100", "unit": "nM"}, {"measurement": "GI50", "setting": "YH-13", "result": "< 100", "unit": "nM"}, {"measurement": "proliferation in CT26 cells in vitro", "setting": "CT26 cells", "result": "do not inhibit proliferation"}]}
